Measurements taken from paper PMC12005739, “Disruption of the eEF1A1/ARID3A/PKC‐δ Complex by Neferine Inhibits Macrophage Glycolytic Reprogramming in Atherosclerosis” (Advanced Science, 2025).

How the values were obtained:
[1] = target: T1, eEF1A1 (RAW264.7 macrophages) (Mus musculus, UniProt P10126); assay: CETSA and DARTS with Western blot; competition of probe pull-down; format: biochemical; conditions: RAW264.7 lysate or cells; Nef 200 µM (CETSA methods) or 10 µM (figure legend); DARTS 2.5-10 µM with pronase
T1 construct: endogenous protein in RAW264.7 cells or lysate, about 50 kDa band, identified by LC-MS/MS and Western blot
T1 sequence (P10126 2-462): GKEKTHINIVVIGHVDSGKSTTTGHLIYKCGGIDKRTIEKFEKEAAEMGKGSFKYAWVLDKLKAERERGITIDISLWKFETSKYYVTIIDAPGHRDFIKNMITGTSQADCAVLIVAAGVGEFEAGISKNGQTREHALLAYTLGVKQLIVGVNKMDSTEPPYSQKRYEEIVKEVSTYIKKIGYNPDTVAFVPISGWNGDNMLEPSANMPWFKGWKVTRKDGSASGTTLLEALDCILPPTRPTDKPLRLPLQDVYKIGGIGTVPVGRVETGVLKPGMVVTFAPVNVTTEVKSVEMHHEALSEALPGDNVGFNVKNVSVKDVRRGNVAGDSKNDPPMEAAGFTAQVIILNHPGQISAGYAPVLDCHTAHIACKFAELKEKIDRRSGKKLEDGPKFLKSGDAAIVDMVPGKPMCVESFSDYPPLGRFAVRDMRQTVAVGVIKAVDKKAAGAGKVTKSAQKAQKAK

[2] = target: T2, eEF1A1 (recombinant human eEF1A1) (Homo sapiens, UniProt P68104); assay: isothermal titration calorimetry (MicroCal PEAQ-ITC); format: binding
T2 sequence (P68104 1-462): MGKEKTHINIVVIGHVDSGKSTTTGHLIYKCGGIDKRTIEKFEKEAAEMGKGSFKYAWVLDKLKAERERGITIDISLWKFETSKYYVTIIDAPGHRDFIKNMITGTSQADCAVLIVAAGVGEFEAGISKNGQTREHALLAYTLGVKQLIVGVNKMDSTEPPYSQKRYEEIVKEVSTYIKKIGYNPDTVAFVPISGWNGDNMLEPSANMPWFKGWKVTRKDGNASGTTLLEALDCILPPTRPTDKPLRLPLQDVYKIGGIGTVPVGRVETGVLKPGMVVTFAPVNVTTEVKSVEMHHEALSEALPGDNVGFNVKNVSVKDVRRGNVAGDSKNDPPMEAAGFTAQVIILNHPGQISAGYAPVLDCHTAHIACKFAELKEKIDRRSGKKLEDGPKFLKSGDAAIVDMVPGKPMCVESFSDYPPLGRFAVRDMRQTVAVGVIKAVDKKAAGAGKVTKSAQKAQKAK
Description: isothermal titration calorimetry (MicroCal PEAQ-ITC) on eEF1A1 (recombinant human eEF1A1) | ITC assay confirmed the affinity of Nef to eEF1A1 with the affinity constant of […]

COc1ccc(C[C@@H]2c3cc(Oc4cc(C[C@@H]5c6cc(OC)c(OC)cc6CCN5C)ccc4O)c(OC)cc3CCN2C)cc1 [neferine]
CETSA and DARTS with Western blot; competition of probe pull-down [1]: Nef administration protected the eEF1A1 protein from temperature‐dependent degradation in cell lysis | Kd [2]: 4.83 µM
